21 molecules from patent US11802120B2, “Fused cyclic urea derivatives as CRHR2 antagonist” (RaQualia Pharma Inc., priority 2018, dated 2023) can be followed below.

This experiment concerns the target T1, human CRHR2-alpha (Homo sapiens, UniProt Q13324).
T1 sequence (Q13324 1-411): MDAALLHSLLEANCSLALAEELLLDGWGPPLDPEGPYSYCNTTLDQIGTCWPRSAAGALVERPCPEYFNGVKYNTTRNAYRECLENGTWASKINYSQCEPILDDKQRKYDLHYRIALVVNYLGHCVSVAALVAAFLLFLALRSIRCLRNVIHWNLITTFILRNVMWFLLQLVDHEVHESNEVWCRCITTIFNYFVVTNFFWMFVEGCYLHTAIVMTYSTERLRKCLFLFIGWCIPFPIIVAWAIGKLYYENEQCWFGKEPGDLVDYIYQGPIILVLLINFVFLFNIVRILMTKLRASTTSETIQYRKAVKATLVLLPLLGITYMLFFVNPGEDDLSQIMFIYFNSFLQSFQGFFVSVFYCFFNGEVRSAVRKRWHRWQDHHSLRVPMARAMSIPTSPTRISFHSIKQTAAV
The experiment is described as follows: cAMP functional assay for human CRHR2 (LANCE Ultra cAMP, TR-FRET). In kind it is cell-based. Particulars: CHO-K1 cells expressing human CRHR2-alpha, agonist human urocortin2 at EC80, cAMP; read-out: IC50 against CRHR2. The protocol:
cAMP functional assay for human CRHR1 and CRHR2
The ability of the compounds of this invention to inhibit either CRHR2 or CRHR1 is assessed by 3′,5′-cyclic adenosine monophosphate (cAMP) production in cells using the LANCE Ultra cAMP assay kit (ParkinElmer), which are designed based on the homogeneous time-resolved fluorescence resonance energy transfer (TR-FRET) immunoassay.
CHO-K1 (Chinese hamster ovary) cells stably expressing either human CRHR2-alpha (DiscoveRX, Cat. 95-0048C2) or human CRHR1-beta (DiscoveRX, Cat. 95-0047C2) are grown in HAM's F12 media supplemented with 10% fetal bovine serum (FBS), 100 units/mL penicillin, 100 microg/mL hygromycin and 0.5 microg/mL geneticin at 37° C. in 5% CO2 humidified incubator to 80% confluence. After 7 hours starvation treatment in culture media containing 0.1% FBS, the cells are washed with Hanks balanced salt solution (HBSS) and cryopreserved.
For cAMP assay, frozen cells are thawed and washed with HBSS, followed by resuspended in assay buffer (HBSS containing 0.1% bovine serum albumin, 0.5 mM isobutylmethylxanthine and 5 mM Hepes, pH 7.4) at the appropriate concentration for the assay. The cell suspensions are plated on 384-well microplates (Greiner Bio-One) at a density of 4,000 cells per well. After preincubating the cells with various concentrations of the compounds for 30 min at 25° C., an assay buffer containing EC80 concentration of each agonist is added and the cells are incubated for 30 min at 25° C. Human urocortin2 (Peptide Institute) and CRF (Peptide Institute) are used as agonists for CRHR2 and CRHR1, respectively. For the termination of assay, europium-labeled cAMP tracer and ULight (registered trademark) dye labeled cAMP antibodies, both prepared with Lance-Ultra cAMP detection reagent (Perkin Elmer) are added in the plate and incubate for 60 min at 25° C. After incubation, TR-FRET signal is detected by EnVision plate reader (PerkinElmer). The IC50 values for compounds are calculated from dose-response curves by fitting the percent inhibition using XLfit (ID Business Solutions).
Consider `Cc1ncc(Cl)cc1C(=O)N[C@H]1CC[C@H](Cn2c(=O)n(CC(=O)c3ccccc3)c3ccccc32)CC1` [Example 5, 5-chloro-2-methyl-N-((1r,4r)-4-((2-oxo-3-(2-oxo-2-phenylethyl)-2,3-dihydro-1H-benzo[d]imidazol-1-yl)methyl)cyclohexyl)nicotinamide], for which the IC50 is less than 300 nM.
The same measure for `COc1ccc(C(=O)Cn2c(=O)n(C[C@H]3CC[C@H](NC(=O)c4cc(Cl)cnc4C)CC3)c3ccccc32)cc1` [Example 9, 5-chloro-N-((1r,4r)-4-((3-(2-(4-methoxyphenyl)-2-oxoethyl)-2-oxo-2,3-dihydro-1H-benzo[d]imidazol-1-yl)methy)cyclohexyl)-2-methylnicotinamide]: less than 300 nM; for `COc1ccccc1C(=O)Cn1c(=O)n(C[C@H]2CC[C@H](NC(=O)c3cc(Cl)cnc3C)CC2)c2ccccc21` [Example 10, 5-chloro-N-((1r,4r)-4-((3-(2-(2-methoxyphenyl)-2-oxoethyl)-2-oxo-2,3-dihydro-1H-benzo[d]imidazol-1-yl)methyl)cyclohexyl)-2-methylnicotinamide]: less than 300 nM; for `Cc1ncc(Cl)cc1C(=O)N[C@H]1CC[C@H](Cn2c(=O)n(CC(=O)c3ccc(F)cc3F)c3ccccc32)CC1` [Example 12, 5-chloro-N-((1r,4r)-4-((3-(2-(2,4-difluorophenyl)-2-oxoethyl)-2-oxo-2,3-dihydro-1H-benzo[d]imidazol-1-yl)methyl)cyclohexyl)-2-methylnicotinamide]: less than 300 nM.
For the molecule `Cc1ncc(Cl)cc1C(=O)N[C@H]1CC[C@H](Cn2c(=O)n(CC(=O)c3ccc(C#N)cc3)c3ccccc32)CC1` [Example 13, 5-chloro-N-((1r,4r)-4-((3-(2-(4-cyanophenyl)-2-oxoethyl)-2-oxo-2,3-dihydro-1H-benzo[d]imidazol-1-yl)methyl)cyclohexyl)-2-methylnicotinamide], the IC50 was less than 300 nM.
The same measure for `Cc1ncc(Cl)cc1C(=O)N[C@H]1CC[C@H](Cn2c(=O)n(-c3ccccc3F)c3ccccc32)CC1` [Example 33, 5-chloro-N-((1r,4r)-4-((3-(2-fluorophenyl)-2-oxo-2,3-dihydro-1H-benzo[d]imidazol-1-yl)methyl)cyclohexyl)-2-methylnicotinamide]: less than 300 nM; for `Cc1ncc(Cl)cc1C(=O)N[C@H]1CC[C@H](Cn2c(=O)n(-c3ccc(OCC(F)F)nc3)c3ccccc32)CC1` [Example 35, 5-chloro-N-((1r,4r)-4-((3-(6-(2,2-difluoroethoxy)pyridin-3-yl)-2-oxo-2,3-dihydro-1H-benzo[d]imidazol-1-yl)methyl)cyclohexyl)-2-methylnicotinamide]: less than 300 nM.
The same measure for `CCOc1ccc(-n2c(=O)n(C[C@H]3CC[C@H](NC(=O)c4cc(Cl)cnc4C)CC3)c3ccccc32)cn1` [Example 36, 5-chloro-N-((1r,4r)-4-((3-(6-ethoxypyridin-3-yl)-2-oxo-2,3-dihydro-1H-benzo[d]imidazol-1-yl)methyl)cyclohexyl)-2-methylnicotinamide]: less than 300 nM.
The same measure for `CCn1nc2ccccc2c1C(=O)N[C@H]1CC[C@H](Cn2c(=O)n(-c3ccc(OC)cc3)c3ccccc32)CC1` [Example 37, 2-ethyl-N-((1r,4r)-4-((3-(4-methoxyphenyl)-2-oxo-2,3-dihydro-1H-benzo[d]imidazol-1-yl)methyl)cyclohexyl)-2H-indazole-3-carboxamide]: less than 300 nM; for `CCn1nc2ccccc2c1C(=O)N[C@H]1CC[C@H](Cn2c(=O)n(-c3ccc(C)nc3)c3ccccc32)CC1` [Example 38, 2-ethyl-N-((1r,4r)-4-((3-(6-methylpyridin-3-yl)-2-oxo-2,3-dihydro-1H-benzo[d]imidazol-1-yl)methyl)cyclohexyl)-2H-indazole-3-carboxamide]: less than 300 nM.
Regarding `CCn1nc2ccccc2c1C(=O)N[C@H]1CC[C@H](Cn2c(=O)n(-c3ccc(OC)nc3)c3ccccc32)CC1` [Example 39, 2-ethyl-N-((1r,4r)-4-((3-(6-methoxypyridin-3-yl)-2-oxo-2,3-dihydro-1H-benzo[d]imidazol-1-yl)methyl)cyclohexyl)-2H-indazole-3-carboxamide], the IC50 was less than 300 nM.
The same measure for `CCn1nc2ccccc2c1C(=O)N[C@H]1CC[C@H](Cn2c(=O)n(-c3ccc(C(C)=O)cc3)c3ccccc32)CC1` [Example 41, N-((1r,4r)-4-((3-(4-acetylphenyl)-2-oxo-2,3-dihydro-1H-benzo[d]imidazol-1-yl)methyl)cyclohexyl)-2-ethyl-2H-indazole-3-carboxamide]: less than 300 nM; for `CCn1nc2ccccc2c1C(=O)N[C@H]1CC[C@H](Cn2c(=O)n(-c3ccc(C(C)O)cc3)c3ccccc32)CC1` (stereo partly drawn) [Example 42, 2-ethyl-N-((1r,4r)-4-((3-(4-(1-hydroxyethyl)phenyl)-2-oxo-2,3-dihydro-1H-benzo[d]imidazol-1-yl)methyl)cyclohexyl)-2H-indazole-3-carboxamide]: less than 300 nM; for `COc1ccc(-n2c(=O)n(C[C@H]3CC[C@H](NC(=O)c4cc(Cl)cnc4C)CC3)c3ccccc32)cc1OC` [Example 44, 5-chloro-N-((1r,4r)-4-((3-(3,4-dimethoxyphenyl)-2-oxo-2,3-dihydro-1H-benzo[d]imidazol-1-yl)methyl)cyclohexyl)-2-methylnicotinamide]: less than 300 nM.
Then `Cc1ncc(Cl)cc1C(=O)N[C@H]1CC[C@H](Cn2c(=O)n(-c3ccc(F)cc3F)c3ccccc32)CC1` [Example 46, 5-chloro-N-((1r,4r)-4-((3-(2,4-difluorophenyl)-2-oxo-2,3-dihydro-1H-benzo[d]imidazol-1-yl)methyl)cyclohexyl)-2-methylnicotinamide], with less than 300 nM.
As to `Cc1ncc(Cl)cc1C(=O)N[C@H]1CC[C@H](Cn2c(=O)n(-c3ccc(N(C)C)nc3)c3ccccc32)CC1` [Example 52, 5-chloro-N-((1r,4r)-4-((3-(6-(dimethylamino)pyridin-3-yl)-2-oxo-2,3-dihydro-1H-benzo[d]imidazol-1-yl)methyl)cyclohexyl)-2-methylnicotinamide], the IC50 was less than 300 nM.
In the case of `COCCN(C)c1ccc(-n2c(=O)n(C[C@H]3CC[C@H](NC(=O)c4cc(Cl)cnc4C)CC3)c3ccccc32)cn1` [Example 53, 5-chloro-N-((1r,4r)-4-((3-(6-((2-methoxyethyl)(methyl)amino)pyridin-3-yl)-2-oxo-2,3-dihydro-1H-benzo[d]imidazol-1-yl)methyl)cyclohexyl)-2-methylnicotinamide], the IC50 was less than 300 nM.
With `Cc1ncc(Cl)cc1C(=O)N[C@H]1CC[C@H](Cn2c(=O)n(-c3ccc(N4CCOCC4)nc3)c3ccccc32)CC1` [Example 54, 5-chloro-2-methyl-N-((1r,4r)-4-((3-(6-morpholinopyridin-3-yl)-2-oxo-2,3-dihydro-1H-benzo[d]imidazol-1-yl)methyl)cyclohexyl) nicotinamide], the IC50 is less than 300 nM.
Then `Cc1ncc(Cl)cc1C(=O)N[C@H]1CC[C@H](Cn2c(=O)n(-c3ccc(N4CCN(C)CC4)nc3)c3ccccc32)CC1` [Example 55, 5-chloro-2-methyl-N-((1r,4r)-4-((3-(6-(4-methylpiperazin-1-yl)pyridin-3-yl)-2-oxo-2,3-dihydro-1H-benzo[d]imidazol-1-yl)methyl)cyclohexyl)nicotinamide], with less than 300 nM; and `Cc1ccc(-n2c(=O)n(C[C@H]3CC[C@H](NC(=O)c4cc(Cl)cnc4C)CC3)c3cccc(C)c32)cn1` [Example 57, 5-chloro-2-methyl-N-((1r,4r)-4-((4-rrethyl-3-(6-methylpyridin-3-yl)-2-oxo-2,3-dihydro-1H-benzo[d]imidazol-1-yl)methyl)cyclohexyl)nicotinamide], with less than 300 nM.
Then `COc1ccc(-n2c(=O)n(C[C@H]3CC[C@H](NC(=O)c4cc(Cl)cnc4C)CC3)c3cccc(C)c32)cn1` [Example 58, 5-chloro-N-((1r,4r)-4-((3-(6-methoxypyridin-3-yl)-4-methyl-2-oxo-2,3-dihydro-1H-benzo[d]imidazol-1-yl)methyl)cyclohexyl)-2-methylnicotinamide], with less than 300 nM.

For orientation: IC50 means the midpoint of a concentration-inhibition curve.
